Test results taken from patent US8399497B2, “Thiazole derivatives and use thereof” (Merck Serono SA, priority 2005, dated 2013).
Where two headings read alike, the source gives them in different places.

What was measured:
[1] = target: Human recombinant GST-PI3Kγ (Homo sapiens, UniProt P48736); assay: High throughput PI3K lipid kinase assay (SPA, neomycin-coated beads); format: biochemical
Excerpt: a) High Throughput PI3K Lipid Kinase Assay (Binding Assay):
The efficacy of compounds of the invention in inhibiting the PI3K induced-lipid phosphorylation may be tested in the following binding assay.
The assay combines the scintillation proximity assay technology (SPA, Amersham) with the capacity of neomycin (a polycationic antibiotic) to bind phospholipids with high affinity and specificity. The Scintillation Proximity Assay is based on the properties of weakly emitting isotopes (such as ^3H, ^125I, ^33P). Coating SPA beads with neomycin allows the detection of phosphorylated lipid substrates after incubation with recombinant PI3K and radioactive ATP in the same well, by capturing the radioactive phospholipids to the SPA beads through their specific binding to neomycin.
To a 384 wells MTP containing 5 μl of the test compound of Formula (I) (solubilized in 6% DMSO; to yield a concentration of 100, 30, 10, 3, 1, 0.3, 0.1, 0.03, 0.01, 01 μM of the test compound), the following assay components are added. 1) 5 μl (58 ng) of Human recombinant GST-PI3Kγ (in Hepes 40 mM, pH 7.4, DTT 1 mM and ethylenglycol 5%) 2) 10 μl of lipid micelles and 3) 10 μl of Kinase buffer ([^33P]γ-ATP 45 μM/60 nCi, MgCl2 30 mM, DTT 1 mM, β-Glycerophosphate 1 mM, Na3VO4 100 μM, Na Cholate 0.3%, in Hepes 40 mM, pH 7.4). After incubation at room temperature for 180 minutes, with gentle agitation, the reaction is stopped by addition of 60 μl of a solution containing 100 μg of neomycin-coated PVT SPA beads in PBS containing ATP 10 mM and EDTA 5 mM. The assay is further incubated at room temperature for 60 minutes with gentle agitation to allow binding of phospholipids to neomycin-SPA beads. After precipitation of the neomycin-coated PVT SPA beads for 5 minutes at 1500×g, radioactive PtdIns(3)P is quantified by scintillation counting in a Wallac MicroBeta™ plate counter.
The values indicated in Table II below refer to the IC50 (μM) with respect to PI3Kγ, i.e. the amount necessary to achieve 50% inhibition of said target. Said values show a considerable inhibitory potency of thiazole compounds with regard to PI3Kγ.

[2] = tested on: PI3K induced Akt/PKB phosphorylation in Raw 264-7 macrophages; assay: Cell based ELISA of Akt/PKB phosphorylation in macrophages after Complement 5a stimulation; conditions: Mus musculus, RAW264.7, 5 min, 50 nM Complement 5a for 5 minutes, read-out: Cell Assay (P-Akt, Elisa) IC50
Experimental: b) Cell Based ELISA to Monitor PI3K Inhibition:
The efficacy of compounds of the invention in inhibiting the PI3K induced Akt/PKB phosphorylation may be tested in the following cell based assay.
Measurement of Akt/PKB phosphorylation in macrophages after stimulation with Complement 5a: Raw 264: Raw 264-7 macrophages (cultured in DMEM-F12 medium containing 10% Fetal Calf serum and antibiotics) are plated at 20,000 cells/well in a 96 MTP 24 h before cell stimulation. Prior to the stimulation with 50 nM of Complement 5a during 5 minutes, Cells are serum starved for 2 h, and pretreated with inhibitors for 20 minutes. After stimulation cells are fixed in 4% formaldehyde for 20 minutes and washed 3 times in PBS containing 1% Triton X-100 (PBS/Triton). Endogenous peroxidase is blocked by a 20 minutes incubation in 0.6% H2O2 and 0.1% Sodium Azide in PBS/Triton and washed 3 times in PBS/Triton. Cells are then blocked by 60 minutes incubation with 10% fetal calf serum in PBS/Triton. Next, phosphorylated Akt/PKB is detected by an overnight incubation at 4° C. with primary antibody (anti phospho Serine 473 Akt IHC, Cell Signaling) diluted 800-fold in PBS/Triton, containing 5% bovine serum albumin (BSA). After 3 washes in PBS/Triton, cells are incubated for 60 minutes with a peroxidase conjugated goat-anti-rabbit secondary antibody (1/400 dilution in PBS/Triton, containing 5% BSA), washed 3 times in PBS/Triton, and 2 times in PBS and further incubated in 100 μl of luminescent substrate reagent solution (Pierce) for 2 minutes, followed by the reading (1 s/well).
The values indicated in Table III below reflect the percentage of inhibition of AKT phoshorylation as compared to basal level. Said values show a clear effect of the thiazole compounds on the activation of AKT phosphorylation in macrophages.

[3] = tested on: Neutrophil recruitment; assay: Thioglycollate-induced peritoneal cavity cell recruitment model, neutrophils; format: in vivo, C3H mice; conditions: 10 mg/kg orally, lavage 4 h after thioglycollate
Experimental: (§1) Thioglycollate-Induced Pertioneal Cavity Cell Recruitment Model
(§2) The in vivo efficacy of compounds of the invention in inhibiting the migration of leukocytes upon intraperitoneal challenge of thioglycollate may be tested with the following assay.
(§3) 8-10 weeks old female C3H mice are fasted during 18 hours. 15 minutes prior the intraperitoneal injection of thioglycollate (1.5%, 40 ml/kg), the mice are treated orally with Thiazoles of Formula (I). Control mice receive CMC/Tween as vehicle (10 ml/kg). The mice are then sacrificed by CO2 inhalation and the peritoneal cavity is washed two times with 5 ml of ice-cold PBS/1 mM EDTA. The lavages are done 4 hours or 48 hours after thioglycollate challenge to evaluate neutrophils or macrophages recruitment, respectively. The white blood cells (neutrophils, lymphocytes or macrophages) are counted using a Beckman Coulter® A ^cT 5diff™. Dexamethasone is used as reference drug.

[4] = tested on: Macrophage recruitment; assay: Thioglycollate-induced peritoneal cavity cell recruitment model, macrophages; format: in vivo, C3H mice; conditions: 10 mg/kg orally, lavage 48 h after thioglycollate
Experimental: as §1, §2, §3

[5] = tested on: Collagen-induced arthritis; assay: Collagen-induced arthritis, CIA (mouse); format: in vivo, DBA/1 mice; conditions: twice a day, 7 days

Chain of Human recombinant GST-PI3Kγ (P48736 whole entry): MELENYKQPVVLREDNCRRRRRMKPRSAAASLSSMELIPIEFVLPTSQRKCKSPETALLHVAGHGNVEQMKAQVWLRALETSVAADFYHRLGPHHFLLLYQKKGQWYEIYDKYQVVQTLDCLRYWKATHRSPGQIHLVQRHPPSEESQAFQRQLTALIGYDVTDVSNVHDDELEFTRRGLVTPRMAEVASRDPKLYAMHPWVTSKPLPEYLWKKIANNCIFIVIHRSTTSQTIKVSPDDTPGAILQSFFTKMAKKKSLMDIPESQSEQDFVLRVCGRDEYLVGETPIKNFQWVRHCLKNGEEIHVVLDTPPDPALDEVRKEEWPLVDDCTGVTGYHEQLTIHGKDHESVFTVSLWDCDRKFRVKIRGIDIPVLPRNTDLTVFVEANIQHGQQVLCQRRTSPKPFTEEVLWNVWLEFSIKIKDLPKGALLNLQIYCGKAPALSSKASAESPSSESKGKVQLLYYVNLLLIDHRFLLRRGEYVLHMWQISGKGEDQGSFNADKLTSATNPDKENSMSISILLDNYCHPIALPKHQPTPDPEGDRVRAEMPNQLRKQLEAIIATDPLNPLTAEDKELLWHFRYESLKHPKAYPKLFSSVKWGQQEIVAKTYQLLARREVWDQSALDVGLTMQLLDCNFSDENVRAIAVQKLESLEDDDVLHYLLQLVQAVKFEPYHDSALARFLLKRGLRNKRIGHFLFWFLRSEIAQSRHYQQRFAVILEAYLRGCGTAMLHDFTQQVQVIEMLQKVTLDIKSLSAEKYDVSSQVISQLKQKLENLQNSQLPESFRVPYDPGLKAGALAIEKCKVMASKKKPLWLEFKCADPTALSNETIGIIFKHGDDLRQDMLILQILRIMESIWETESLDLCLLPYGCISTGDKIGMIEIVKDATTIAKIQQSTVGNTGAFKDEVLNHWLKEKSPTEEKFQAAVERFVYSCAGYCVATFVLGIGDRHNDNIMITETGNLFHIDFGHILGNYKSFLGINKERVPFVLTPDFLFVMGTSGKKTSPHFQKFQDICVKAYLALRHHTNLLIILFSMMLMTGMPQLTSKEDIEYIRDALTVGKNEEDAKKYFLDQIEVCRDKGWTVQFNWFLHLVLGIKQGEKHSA

Compound `CC(=O)Nc1nc(C)c(-c2csc(S(=O)(=O)N3CCC(O)CC3)c2)s1` [Example 39, N-(5-{5-[(4-hydroxypiperidin-1-yl)sulfonyl]-3-thienyl}-4-methyl-1,3-thiazol-2-yl)acetamide] has an IC50 [1] of 14 nM, an IC50 [2] of 50 nM and an IC50 ([2]; re-testing) of 320 nM. The “% inhibition of Neutrophil recruitment at 10 mg/kg after 4 h” value (from here on “% inhibition of Neutrophil recruitment”) [3] was 48%, the “% inhibition of Macrophage recruitment at 10 mg/kg after 48 h” value [4] was 43% and the “Reduction of total clinical score [%]” value ([5]; 10 mg/kg orally) was 30%. The “Reduction of total clinical score [%]” value ([5]; 30 mg/kg orally) was 50% and the “Reduction of total clinical score [%]” value ([5]; 60 mg/kg orally) was 75%.
With `CC(=O)Nc1nc(C)c(-c2ccc(S(=O)(=O)NCCCN(C)C)s2)s1` [Example 10, N-{5-[5-({[3-(dimethylamino)propyl]amino}sulfonyl)-2-thienyl]-4-methyl-1,3-thiazol-2-yl}acetamide] the IC50 [1] was 289 nM, the IC50 [2] was 1290 nM and the “% inhibition of Neutrophil recruitment” value [3] was 58%.
`CC(=O)Nc1nc(C)c(-c2csc(S(=O)(=O)NCCN(C)C)c2)s1` [Example 23, N-{5-[5-({[2-(dimethylamino)ethyl]amino}sulfonyl)-3-thienyl]-4-methyl-1,3-thiazol-2-yl}acetamide] gave an IC50 [1] of 28 nM and an IC50 [2] of 480 nM.
With `CC(=O)Nc1nc(C)c(-c2csc(S(=O)(=O)N3CCN(C)CC3)c2)s1` [Example 29, N-(4-methyl-5-{5-[(4-methylpiperazin-1-yl)sulfonyl]-3-thienyl}-1,3-thiazol-2-yl)acetamide] the IC50 [1] was 28 nM, the IC50 [2] was 460 nM and the “% inhibition of Neutrophil recruitment” value [3] was 28%.
In the case of `CC(=O)Nc1nc(C)c(-c2ccc(S(=O)(=O)NCCN3CCOCC3)s2)s1` [Example 9, N-[4-methyl-5-(5-{[(2-morpholin-4-ylethyl)amino]sulfonyl}-2-thienyl)-1,3-thiazol-2-yl]acetamide], the IC50 [1] is reported as 158 nM, the IC50 [2] is reported as 850 nM and the “% inhibition of Neutrophil recruitment” value [3] is reported as 48%.
`CC(=O)Nc1nc(C)c(-c2csc(S(=O)(=O)N3CCCC(O)C3)c2)s1` (centres unmarked) [Example 48, N-(5-{5-[(3-hydroxypiperidin-1-yl)sulfonyl]-3-thienyl}-4-methyl-1,3-thiazol-2-yl)acetamide] showed an IC50 [2] of 150 nM.
For `CC(=O)Nc1nc(C)c(-c2csc(S(=O)(=O)N3CCOCC3)c2)s1` [Example 46, N-{4-methyl-5-[5-(morpholin-4-ylsulfonyl)-3-thienyl]-1,3-thiazol-2-yl}acetamide], the IC50 [1] was 27 nM, the IC50 [2] was > 30000 nM and the “% inhibition of Neutrophil recruitment” value [3] was 36%.
`C#CCNS(=O)(=O)c1ccc(-c2sc(NC(C)=O)nc2C)s1` [Example 1, N-(4-methyl-5-{5-[(prop-2-yn-1-ylamino)sulfonyl]-2-thienyl}-1,3-thiazol-2-yl)acetamide] was tested, and the IC50 [1] was 119 nM and the IC50 [2] was 660 nM.
`COC(=O)[C@H](CO)NS(=O)(=O)c1ccc(-c2sc(NC(C)=O)nc2C)s1` [Example 15, methyl N-({5-[2-(acetylamino)-4-methyl-1,3-thiazol-5-yl]-2-thienyl}sulfonyl)serinate] showed an IC50 [1] of 70 nM.
